Assay results published in patent US9505794B2, “Ruthenium (II) complexes, preparation and uses thereof” (priority 2014, dated 2016).

How the values were obtained:
live MCF-7 cells = assay: CLSM imaging of live cells, co-staining with ER-Tracker Green; type: cell-based; details: live MCF-7, 50 μM, 37° C
Procedure: In the light of the negligible toxicity towards MCF-7 cells, the application of the above complexes as potential as imaging agents was explored in live MCF-7 cells by incubating the cells separately with 50 μM of 1, 2, and 3 at 37° C.

MCF-7 cell line = assay: Cellular uptake and quantification of Ru by MP-AES; type: cell-based; details: MCF-7, 50 μM, 24 h, 37° C
Procedure: Cellular accumulation studies for complexes 1, 2, and 3 were conducted on the MCF-7 cell line. Briefly, 2.5×10^5-1×10^6 cells were seeded on a petridish; the metal complexes were then added to give final concentrations of 50 μM and allowed a further 24 h of drug exposure at 37° C. After this time, cells were treated with trypsin, counted using haemocytometer, and cells collected were digested overnight in concentrated nitric acid (73%) at 60° C.; Samples were made up to exactly 10 mL using deionized water and the amount of ruthenium taken up by the cells was estimated by MP-AES (Microwave Plasma Atomic Emission Spectroscopy), using an Agilent Technologies instrument (Model No: 4100 MP-AES). The solvent used for all MP-AES experiments was double deionized water (DDW). The concentrations used for the calibration curve were in all cases 0, 5, 7.5, 10 ppm. The isotope detected was ^101Ru; readings were made in duplicate (N2 gas mode).

[1] = Fluorescence quantum yield and luminescence lifetime (TCSPC) in water; type: physicochemical; details: pure aqueous medium; for τ (luminescence lifetime): excitation 443 nm; for Φf (fluorescence quantum yield): reference Ru(bpy)3Cl2
Description: UV-Vis spectra were obtained by using a Cary 500 scan UV-Vis-NIR spectrometer. Room temperature emission spectrum was obtained using an Edinburgh instrument Xe-900 spectro fluorometer. The fluorescence quantum yields, Φf were estimated by using equation 1 in water medium using the integrated emission intensity of Ru(bpy)3Cl2 (Φf=0.042 in H2O at RT) as a reference. (FIG. 20)
Luminescent lifetimes were obtained using a Horiba TCSPC (Time Correlated Single Photon Counting) system exciting at 443 nm. 10,000 counts were collected for each lifetime measurement and all measurements were performed in triplicate using DAS software to confirm results. The calculation of the luminescent lifetimes was performed by fitting an exponential decay function to each decay plot to extract the lifetime information using DAS6 fluorescence decay analysis software (FIG. 2).

PFA fixed MCF-7 cells = assay: CLSM imaging of fixed cells, co-staining with DAPI; type: cell-based; details: fixed MCF-7, excitation 442 nm, emission 620 nm
Procedure: In another embodiment, co-staining experiments were performed with DAPI, a commonly used commercial nuclear staining agent.
To ensure that DAPI had no influence in internalization of the complexes 1 and 2, identical experiments with fixed MCF-7 cells in absence of DAPI were performed (FIG. 22 c) and a distinct red emission were observed from the nucleus. Luminescence intensity profile plots confirmed that the emission was actually from the nucleus.
MCF-7 and HEK293T cells were cultured in DMEM respectively supplemented with 10% FBS and penicillin/streptomycin. Cell lines were maintained at 37° C. in an atmosphere of 5% CO2 and routinely sub-cultured. For CLSM, cell cultures were grown on 6 well plate with coverslips, after 24 hrs of incubation the cells were treated with solutions of 1 or 2 (20 μM,) in serum containing media and incubated for 2 h. After incubation media was removed and cells were washed with 1×PBS buffer and fixed them using paraformaldehyde and stained for confocal microscopy. Nuclear staining was performed by using DAPI. Olympus Fluoview was used to observe the compound staining Compound was excited at 443 nm and emission was detected at 620 nm wavelength.
DAPI was excited by using a 405 nm diode laser and emission detected with a 420-480 nm long-pass band-filter. (FIG. 14, 15, 16, 17)

calf-thymus DNA (CT-DNA) = assay: Isothermal titration calorimetry (ITC) binding to CT-DNA; details: for ΔG / ΔH / −TΔS: Tris-HCl buffer pH=7.4, 25° C; for N [bp]: one set of site binding model
Procedure: Relative binding affinity of complexes 1, 2, and 3 towards calf-thymus DNA (CT-DNA) were evaluated using isothermal titration calorimetry (ITC) (FIG. 20). Association constants and thermodynamic parameters (Table 4) clearly reveal that the binding affinities for complexes 1 and 2
ITC experiments were performed with the Microcal iTC200. CT-DNA (0.1 mmol) and complexes 1 (5 mmol), 2 (5 mmol) and 3 (5 mmol) were used for these experiments. All titrations were conducted in Tris-HCl buffer (5 mmol Tris and 25 mmol NaCl), pH=7.4 at 25° C. In each titration CT-DNA was loaded into the cell and 1 or 2 or 3 were taken into the syringe. Aliquot of 2 μL of compounds were injected into the cell containing DNA. In each experiment, the raw isotherms were corrected for heat of dilution by subtracting the isotherms representing the compounds injected into the Tris-HCl buffer. The resulting isotherms were fitted with the one set of site binding model provided with Microcal iTC200. (Refer FIG. 21)

[2] = Partition coefficient (log P), shake-flask method, n-octanol/water; details: for log P: values of text and unnumbered table; for LogP: values of Table 2
Procedure: Partition coefficients (log P) for these three complexes were evaluated by shake-flask method and these were correlated to the lipophilicity of respective complexes.
n-Octanol saturated water and water saturated octanol was obtained using Millipore water stirred with n-octanol for 24 h before the two layers were separated by centrifugation (3000 rpm, 5 min). The chloride salts of complex 1 and 2 were dissolved in n-octanol saturated water giving concentrations ranging from 0.5 to 3.0 mmol. This was then mixed with water saturated n-octanol in the ratio of 1:1 (v/v). Resulting solvent mixtures were vertexed for 30 min at room temperature, and then were subjected to centrifugation (3000 rpm, 5 min) to get two distinct separate layers. Samples from each layer were obtained using a fine-gauge needle and the absorbance of respective complex in each phase determined using UV-Vis spectroscopy.

[3] = Photostability under continuous irradiation by confocal microscopy; type: physicochemical; details: for reduction of fluorescence intensity upon irradiation: fixed MCF-7, exposure at 442 nm for 300 sec
Description: In yet another embodiment, photostability of these two complexes 1 & 2 compared with that for DAPI dye by using confocal microscopy.

[4] = tested on: nuclear DNA of fixed MCF-7 cells; assay: DNase I / RNase A digest experiments (CLSM); type: cell-based; details: fixed MCF-7 cells pre-treated with DNase I
Procedure: Further, in order to check the preferential binding of these two reagents to nuclear DNA, deoxyribonuclease (DNase I) and ribonuclease (RNase A) digest experiments were carried out. DNase I is an enzyme that catalyzes the hydrolytic cleavage of phosphodiester linkages in the DNA and RNase A is a type of nuclease that catalyzes the degradation of RNA into smaller components. DAPI was used for control experiments.

For `Cc1ccnc(-c2cc(C)ccn2)c1.F[P-](F)(F)(F)(F)F.F[P-](F)(F)(F)(F)F.[Ru+2].c1ccc(-c2ccccn2)nc1.c1ccc(-c2ccccn2)nc1` [Complex 3, [Ru(bpy)2(L3)]2+, reference compound], which “extent of cellular uptake” value (live MCF-7 cells) is on record?
Its value is “less as compared to the complexes 1 and 2”.

What about the “intracellular localisation of emission in live cells” value (live MCF-7 cells) of the same compound?
Its value is “did not show any such specificity towards lipid dense regions”.

What about the Ru accumulation (MCF-7 cell line) of the same compound?
The Ru accumulation was 0.8 ppm/10^6 cells.

What about the “τ (luminescence lifetime)” value [1] of the same compound?
The value was 321 ns.

What about the “Φf (fluorescence quantum yield)” value [1] of the same compound?
Its value is 0.05.

What about the “staining of fixed cells” value (PFA fixed MCF-7 cells) of the same compound?
The value was “non-specific staining of cellular compartments”.

And the ΔG (calf-thymus DNA (CT-DNA))?
Its ΔG is −4.52 ± 0.25 Kcal/M^−1.

And the ΔH (calf-thymus DNA (CT-DNA))?
Its ΔH is 0.51 ± 0.25 Kcal/M^−1.

And the “−TΔS” value (calf-thymus DNA (CT-DNA))?
The value was 5.03 Kcal/M^−1l.

And the “N [bp]” value (calf-thymus DNA (CT-DNA))?
The value was 0.354 ± 0.14 bp.

What about the “log P” value [2] of the same compound?
The value was −1.1.

Which “fluorescence intensity upon continuous irradiation” value ([3]; fixed MCF-7, at 359 nm for 300 sec) does the source give for `N=C(N)c1ccc(-c2cc3ccc(C(=N)N)cc3[nH]2)cc1` [DAPI, 4′,6-diamidino-2-phenylindole, reference compound] here?
Its value is “drastically reduced”.

What does the source list for “{bis-(2,2′-bpy)-(1-((4′-methyl-[2,2′-bipyridin]-4-yl)methyl)pyrimidine-2,4(1H,3H)-dione)}ruthenium(II) dichloride [Complex 2]”?
intracellular localisation of emission in live cells (live MCF-7 cells): exactly superimposed with those for ER-Tracker™ Green; intracellular fluorescence intensity from the nucleus after DNase I pre-treatment [4]: significantly reduced; Ru accumulation (MCF-7 cell line): 2.3 ppm/10^6 cells; reduction of fluorescence intensity upon irradiation [3]: ~20%; τ (luminescence lifetime) [1]: 323 ns; Φf (fluorescence quantum yield) [1]: 0.050; water solubility (Water solubility): highly water soluble; staining of fixed cells (PFA fixed MCF-7 cells): as efficient as DAPI in staining the nucleus; ΔG (calf-thymus DNA (CT-DNA)): −6.00 ± 0.02 Kcal/M^−1; ΔH (calf-thymus DNA (CT-DNA)): 1.47 ± 0.02 Kcal/M^−1; −TΔS (calf-thymus DNA (CT-DNA)): 7.47 Kcal/M^−1l; N [bp] (calf-thymus DNA (CT-DNA)): 0.98 ± 0.01 bp; LogP [2]: −1.59 ± 0.09

Which results are given for “{bis-(2,2′-bpy)-(5-fluoro-1-((4′-methyl-[2,2′-bipyridin]-4-yl)methyl)pyrimidine-2,4(1H,3H)-dione)}ruthenium(II) dichloride [Complex 1]”?
intracellular localisation of emission in live cells (live MCF-7 cells): exactly superimposed with those for ER-Tracker™ Green; intracellular fluorescence intensity from the nucleus after DNase I pre-treatment [4]: significantly reduced; Ru accumulation (MCF-7 cell line): 1.5 ppm/10^6 cells; reduction of fluorescence intensity upon irradiation [3]: ~20%; τ (luminescence lifetime) [1]: 336 ns; Φf (fluorescence quantum yield) [1]: 0.048; water solubility (Water solubility): highly water soluble; staining of fixed cells (PFA fixed MCF-7 cells): as efficient as DAPI in staining the nucleus; ΔG (calf-thymus DNA (CT-DNA)): −6.68 ± 0.41 Kcal/M^−1; ΔH (calf-thymus DNA (CT-DNA)): −35.5 ± 0.41 Kcal/M^−1; N [bp] (calf-thymus DNA (CT-DNA)): 0.61 ± 0.0 bp; LogP [2]: −0.99 ± 0.05; log P [2]: −0.85
